{
  "source": "patent US20180008575A1",
  "about": "“METHODS OF TREATING BINGE EATING DISORDER” (Neurovance, Inc., priority 2016, published 2018)",
  "key": {"[1]": {"target": "dopamine reuptake (DA) (Homo sapiens, UniProt Q01959)", "sequence (Q01959 whole entry)": "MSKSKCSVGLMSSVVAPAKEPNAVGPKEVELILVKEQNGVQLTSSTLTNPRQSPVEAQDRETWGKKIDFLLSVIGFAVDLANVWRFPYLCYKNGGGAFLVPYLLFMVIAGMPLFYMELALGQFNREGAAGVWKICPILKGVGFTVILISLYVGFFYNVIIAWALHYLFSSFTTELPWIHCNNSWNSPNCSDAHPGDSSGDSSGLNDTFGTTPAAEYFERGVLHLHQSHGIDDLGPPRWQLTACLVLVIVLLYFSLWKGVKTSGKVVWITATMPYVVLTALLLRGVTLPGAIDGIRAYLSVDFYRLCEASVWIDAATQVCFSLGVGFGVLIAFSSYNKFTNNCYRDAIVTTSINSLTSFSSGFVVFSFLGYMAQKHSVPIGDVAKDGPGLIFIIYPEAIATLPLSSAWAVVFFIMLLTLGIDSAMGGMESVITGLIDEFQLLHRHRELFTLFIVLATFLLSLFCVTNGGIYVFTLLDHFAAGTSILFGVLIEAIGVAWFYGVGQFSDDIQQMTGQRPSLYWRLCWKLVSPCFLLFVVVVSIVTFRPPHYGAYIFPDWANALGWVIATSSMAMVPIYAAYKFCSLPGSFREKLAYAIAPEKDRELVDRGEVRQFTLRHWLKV", "experiment": "dopamine reuptake inhibition", "type": "biochemical", "conditions": "fraction of the potency towards NE reuptake"}, "[2]": {"target": "norepinephrine reuptake (NE) (Homo sapiens, UniProt P23975)", "sequence (P23975 whole entry)": "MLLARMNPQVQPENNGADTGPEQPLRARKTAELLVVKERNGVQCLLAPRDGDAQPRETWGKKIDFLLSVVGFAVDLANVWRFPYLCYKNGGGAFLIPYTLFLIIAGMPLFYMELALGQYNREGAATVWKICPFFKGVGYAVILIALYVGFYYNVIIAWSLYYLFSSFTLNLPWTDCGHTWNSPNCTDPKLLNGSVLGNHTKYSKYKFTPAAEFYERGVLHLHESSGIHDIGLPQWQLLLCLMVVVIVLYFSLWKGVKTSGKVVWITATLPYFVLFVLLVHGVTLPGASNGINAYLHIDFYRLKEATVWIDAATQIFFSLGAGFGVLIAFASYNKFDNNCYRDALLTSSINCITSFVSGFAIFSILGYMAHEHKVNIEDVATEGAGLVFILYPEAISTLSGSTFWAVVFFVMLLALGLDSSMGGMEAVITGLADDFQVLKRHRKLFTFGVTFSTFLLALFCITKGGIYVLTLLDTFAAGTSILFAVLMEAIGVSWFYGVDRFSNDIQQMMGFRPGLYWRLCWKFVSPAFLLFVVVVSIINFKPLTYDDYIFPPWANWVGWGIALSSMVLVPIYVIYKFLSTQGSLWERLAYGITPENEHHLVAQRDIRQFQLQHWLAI", "experiment": "norepinephrine reuptake inhibition", "type": "biochemical", "conditions": "unbalanced triple reuptake inhibitor"}, "[3]": {"target": "T1, monoamine oxidase A (MAO A) (Homo sapiens, UniProt P21397)", "T1 sequence (P21397 1-527)": "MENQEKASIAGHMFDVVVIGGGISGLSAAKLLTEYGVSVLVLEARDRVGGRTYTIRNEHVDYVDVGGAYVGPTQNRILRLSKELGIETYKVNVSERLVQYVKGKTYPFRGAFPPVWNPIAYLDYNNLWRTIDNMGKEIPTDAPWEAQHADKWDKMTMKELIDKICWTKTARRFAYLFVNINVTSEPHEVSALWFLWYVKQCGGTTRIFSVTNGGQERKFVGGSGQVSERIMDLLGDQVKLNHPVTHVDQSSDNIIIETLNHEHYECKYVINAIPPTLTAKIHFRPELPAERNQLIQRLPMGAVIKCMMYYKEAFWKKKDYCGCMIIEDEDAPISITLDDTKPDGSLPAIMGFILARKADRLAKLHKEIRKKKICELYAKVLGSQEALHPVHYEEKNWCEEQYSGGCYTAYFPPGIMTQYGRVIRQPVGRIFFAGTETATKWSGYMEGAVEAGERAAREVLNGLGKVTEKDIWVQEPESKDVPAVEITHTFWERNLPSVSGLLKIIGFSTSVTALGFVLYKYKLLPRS", "experiment": "metabolic pathway"}, "[4]": {"target": "serotonin reuptake (5-HT) (Homo sapiens, UniProt P31645)", "sequence (P31645 whole entry)": "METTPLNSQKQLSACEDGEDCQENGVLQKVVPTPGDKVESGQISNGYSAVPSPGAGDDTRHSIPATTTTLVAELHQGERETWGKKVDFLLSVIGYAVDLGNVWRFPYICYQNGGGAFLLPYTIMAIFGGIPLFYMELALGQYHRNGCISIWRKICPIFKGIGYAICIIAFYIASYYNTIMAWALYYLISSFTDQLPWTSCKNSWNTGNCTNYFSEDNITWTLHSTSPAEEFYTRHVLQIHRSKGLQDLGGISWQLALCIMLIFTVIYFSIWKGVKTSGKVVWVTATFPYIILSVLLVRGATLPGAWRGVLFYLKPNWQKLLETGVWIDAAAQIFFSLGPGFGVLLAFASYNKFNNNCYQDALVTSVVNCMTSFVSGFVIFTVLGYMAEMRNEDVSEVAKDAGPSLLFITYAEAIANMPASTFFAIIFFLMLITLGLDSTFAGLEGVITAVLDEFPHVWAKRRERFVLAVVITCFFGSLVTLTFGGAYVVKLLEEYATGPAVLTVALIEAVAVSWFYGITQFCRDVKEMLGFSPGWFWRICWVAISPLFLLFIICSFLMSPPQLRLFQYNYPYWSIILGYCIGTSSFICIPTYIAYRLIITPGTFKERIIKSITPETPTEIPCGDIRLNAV", "experiment": "serotonin reuptake inhibition", "type": "biochemical", "conditions": "fraction of the potency towards NE reuptake"}},
  "data": [
    {"smiles": "c1ccc2cc([C@]34CNC[C@H]3C4)ccc2c1", "note": "[(1R,5S)-1-(naphthalen-2-yl)-3-azabicyclo[3.1.0]hexane]", "values": [
      {"measurement": "potency towards dopamine reuptake relative to norepinephrine reuptake", "setting": "[1]", "value": "one-sixth"},
      {"measurement": "potency towards norepinephrine reuptake (relative rank among NE, DA, 5-HT)", "setting": "[2]", "value": "most potency towards norepinephrine reuptake"},
      {"measurement": "primary metabolising enzyme", "setting": "[3]", "value": "primarily metabolized by monoamine oxidase A (MAO A)"},
      {"measurement": "potency towards serotonin reuptake relative to norepinephrine reuptake", "setting": "[4]", "value": "one-fourteenth"}
    ]}
  ]
}
